Test results reported in paper PMC8645336, “Benchmarking a highly selective USP30 inhibitor for enhancement of mitophagy and pexophagy” (Life Science Alliance, 2021).

Key:
CYLD = target: T1, CYLD (Homo sapiens, UniProt Q9NQC7); experiment: biochemical; set-up: Ubiquigent DUB profiler selectivity panel, remaining enzyme activity as % of control; settings: read-out: % of control remaining
T1 sequence (Q9NQC7 1-956): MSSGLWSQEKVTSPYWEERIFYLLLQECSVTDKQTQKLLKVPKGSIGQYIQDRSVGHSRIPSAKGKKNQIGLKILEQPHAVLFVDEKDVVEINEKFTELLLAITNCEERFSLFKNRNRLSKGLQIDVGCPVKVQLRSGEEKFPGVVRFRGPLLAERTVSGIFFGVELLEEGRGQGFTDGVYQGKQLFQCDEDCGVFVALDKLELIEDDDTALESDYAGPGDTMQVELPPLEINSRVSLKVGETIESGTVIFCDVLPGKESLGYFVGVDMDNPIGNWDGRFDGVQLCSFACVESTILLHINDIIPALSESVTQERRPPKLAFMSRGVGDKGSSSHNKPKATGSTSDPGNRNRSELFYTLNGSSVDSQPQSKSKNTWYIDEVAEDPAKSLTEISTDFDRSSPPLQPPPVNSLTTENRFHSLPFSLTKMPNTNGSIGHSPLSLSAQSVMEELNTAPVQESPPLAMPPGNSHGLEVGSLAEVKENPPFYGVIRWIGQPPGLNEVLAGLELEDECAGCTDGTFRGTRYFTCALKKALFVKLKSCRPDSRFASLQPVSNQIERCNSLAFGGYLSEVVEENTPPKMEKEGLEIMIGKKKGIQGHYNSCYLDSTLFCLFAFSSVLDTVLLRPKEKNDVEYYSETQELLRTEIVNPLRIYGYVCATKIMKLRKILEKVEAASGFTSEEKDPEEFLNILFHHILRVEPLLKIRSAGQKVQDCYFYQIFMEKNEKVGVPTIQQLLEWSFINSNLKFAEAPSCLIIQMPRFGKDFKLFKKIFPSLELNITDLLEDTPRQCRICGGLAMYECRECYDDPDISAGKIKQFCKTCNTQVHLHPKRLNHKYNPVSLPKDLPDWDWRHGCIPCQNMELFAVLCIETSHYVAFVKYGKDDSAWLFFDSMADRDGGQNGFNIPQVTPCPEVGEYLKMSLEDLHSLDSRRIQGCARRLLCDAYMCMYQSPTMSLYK
Method in brief: (§1)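 CMPD-39 selectivity was profiled at 1-100 μM across >40 DUBs. Cellular engagement used 2 h CMPD-39 pretreatment, then HA-Ub-PA probe for 10 min at 37°C, with USP30 band shift on immunoblot. TOMM20 ubiquitylation was blotted in YFP-PRKN hTERT-RPE1 cells after 1 h antimycin A/oligomycin A (1 μM each).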

USP28 = target: T2, USP28 (Homo sapiens, UniProt Q96RU2); experiment: biochemical; set-up: Ubiquigent DUB profiler selectivity panel, remaining enzyme activity as % of control; settings: read-out: % of control remaining
T2 sequence (Q96RU2 1-1077): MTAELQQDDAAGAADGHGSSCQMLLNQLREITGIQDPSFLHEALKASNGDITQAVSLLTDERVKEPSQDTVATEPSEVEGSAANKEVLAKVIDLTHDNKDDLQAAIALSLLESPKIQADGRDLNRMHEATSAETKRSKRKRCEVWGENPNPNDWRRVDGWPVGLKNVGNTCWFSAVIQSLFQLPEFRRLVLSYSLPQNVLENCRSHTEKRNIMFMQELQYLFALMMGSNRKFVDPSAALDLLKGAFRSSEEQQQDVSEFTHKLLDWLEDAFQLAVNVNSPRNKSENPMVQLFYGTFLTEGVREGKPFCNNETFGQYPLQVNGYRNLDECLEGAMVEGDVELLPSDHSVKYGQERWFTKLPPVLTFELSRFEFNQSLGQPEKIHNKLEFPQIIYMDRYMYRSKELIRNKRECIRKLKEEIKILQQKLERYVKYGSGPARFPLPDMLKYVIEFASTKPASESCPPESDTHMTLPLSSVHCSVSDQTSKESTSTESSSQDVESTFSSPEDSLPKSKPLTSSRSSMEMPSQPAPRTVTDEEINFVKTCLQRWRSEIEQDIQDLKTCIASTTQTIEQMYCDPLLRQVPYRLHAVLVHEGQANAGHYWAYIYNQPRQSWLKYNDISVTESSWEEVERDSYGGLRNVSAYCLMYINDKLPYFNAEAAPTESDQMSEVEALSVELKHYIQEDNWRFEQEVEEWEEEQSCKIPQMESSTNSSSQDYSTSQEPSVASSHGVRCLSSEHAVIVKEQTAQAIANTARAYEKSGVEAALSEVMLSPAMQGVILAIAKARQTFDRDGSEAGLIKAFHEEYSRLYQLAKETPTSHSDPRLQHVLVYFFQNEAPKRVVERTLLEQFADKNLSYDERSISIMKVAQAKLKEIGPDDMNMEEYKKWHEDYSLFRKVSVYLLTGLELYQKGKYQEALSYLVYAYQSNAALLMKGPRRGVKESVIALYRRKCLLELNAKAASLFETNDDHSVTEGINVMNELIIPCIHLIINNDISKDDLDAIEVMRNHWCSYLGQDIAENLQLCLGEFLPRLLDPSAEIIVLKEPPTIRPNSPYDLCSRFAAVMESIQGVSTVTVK
Method in brief: as §1

CC(C)(C)NS(=O)(=O)c1ccc(NC(=O)[C@H](Cc2ccccc2)NC(=O)c2ccc(F)cc2)cc1 [compound 39, CMPD-39]
remaining activity at 1 µM (CYLD): 107% | remaining activity at 10 µM (CYLD): 102% | remaining activity at 100 µM (CYLD): 98% | remaining activity at 1 µM (USP28): 96.5% | remaining activity at 10 µM (USP28): 94.2% | remaining activity at 100 µM (USP28): 102%
